Measurements published in patent publication US20240376109A1, “PYRAZOLO[1,5-A]PYRIMIDINE COMPOUND FOR THE TREATMENT OF DERMAL DISORDERS” (OTSUKA PHARMACEUTICAL CO., LTD., priority 2021, published 2024).
Where two headings read alike, the source gives them in different places. Each block holds one compound with its values, some of them ahead of it.

Columns and labels:
ICR mice = assay: Scratching behavior test with PAR2 agonist peptide (SLIGRL-NH2) administration; format: in vivo, mouse; settings: 40 μL of 6% test compound solution applied to back, SLIGRL-NH2 intradermal, scratching counted 10 to 40 minutes after
Method: Test Example 2: Scratching Behavior Test with PAR2 Agonist Peptide Administration
Magnets for measuring scratching behavior(Neuroscience, Inc.) were implanted in both legs of 6- to 7-week-old female ICR mice under 3.5% isoflurane inhalation anesthesia.
Under isoflurane inhalation anesthesia, the upper back was shaved about 2×3 cm with a shaver and 40 μL of a 6% of test compound solution was applied with a micropipette. The animals were then kept in a dedicated cage for 1 hour. […] Then, under isoflurane inhalation anesthesia, 10 μL of a 25 mg/mL solution of PAR2 agonist peptide (SLIGRL-NH2) in distilled water was administered intradermally by using a needle attached to a Hamilton syringe. The animals were returned to the cage and the scratching frequency was measured by the device for 30 minutes from 10 to 40 minutes after the administration.
The inhibitory effect of the test compounds on scratching behavior was calculated as a percentage of the number of scratches in the solvent-applied and PAR2 agonist peptide-treated group, and is shown in Table 4 as a percentage.

PAR2 = biological target: T1, PAR2 (Homo sapiens, UniProt P55085); assay: Intracellular calcium concentration measurement (SLIGKV-NH2-induced calcium change, Fluo-8, FDSS/μCELL); format: cell-based
T1 construct: HEK293 cell lines derived from human embryonic kidney cultured in a MEM culture medium; endogenous in cells; host or cells: HEK293
T1 sequence (P55085 26-397): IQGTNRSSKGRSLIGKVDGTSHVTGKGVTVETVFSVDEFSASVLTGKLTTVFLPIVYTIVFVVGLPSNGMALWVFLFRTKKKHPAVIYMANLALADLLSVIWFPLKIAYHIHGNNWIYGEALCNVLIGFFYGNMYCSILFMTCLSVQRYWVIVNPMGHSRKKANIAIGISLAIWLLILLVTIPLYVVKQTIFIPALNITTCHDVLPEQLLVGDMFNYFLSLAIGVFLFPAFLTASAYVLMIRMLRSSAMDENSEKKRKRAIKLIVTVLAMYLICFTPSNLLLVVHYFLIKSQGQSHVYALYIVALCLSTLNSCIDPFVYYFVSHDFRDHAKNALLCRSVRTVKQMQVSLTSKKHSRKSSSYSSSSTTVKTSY

NC/Nga mice = assay: Scratching behavior test using atopic dermatitis model (SDS and mite antigen ointment sensitization); settings: 60 μL applied, 7 hours after application
NZW rabbits = assay: Rabbit skin cumulative irritation test (erythema and edema scores, 7 days); format: in vivo; design: key: sum of erythema (5-point scale) + edema (5-point scale) scores; settings: 50 μL of 3% solution in 70% ethanol daily for 7 days; for Irritant score Day 7: average total score of erythema and edema on Day 7; for Irritant score Maximum: maximum (total) score of erythema and edema during the test period
Method: Test Example 4: Rabbit Skin Cumulative Irritation Test
18-20 week-old female NZW rabbits shaved on the back with a shaver were fitted with a collar (Natsume Seisakusho Co., Ltd.). A 2.5 cm×2.5 cm frame was placed on the back of the rabbits, and 50 μL of a 3% solution of each compound in 70% ethanol was applied to the place in 2 or 3 rabbits. The next day (approximately 24 hours later), the compound applied on the previous day was wiped off with a cotton pad soaked in lukewarm water, and approximately 30 minutes later, erythema (5-point scale) and edema (5-point scale) were evaluated according to the score criteria shown below.
After the score evaluation, the compound was applied again. This process was conducted for 7 days, and irritancy was evaluated by the average of the total score of erythema and edema on the last day of evaluation (Day 7) and the maximum (total) scores during the test period.
The score evaluation criteria were as follows.

[1] = HEK293 cells, SLIGKV-NH2 10 μM-induced intracellular calcium change, read-out: IC50
[2] = assessed concentration 6%, solvent 100% ethanol
[3] = assessed concentration 6%, solvent 70% ethanol
[4] = assessed concentration 1%, solvent 100% ethanol

SMILES: CC(C)c1cc(CC2CCCCC2)nc2cc(C(=O)N3CCCCCC3)nn12 [Example 7, azepan-1-yl(5-(cyclohexylmethyl)-7-isopropylpyrazolo[1,5-a]pyrimidin-2-yl)methanone]
scratching-behavior inhibition rate (ICR mice; solvent 100% ethanol): 32%
IC50 (PAR2; IC50 (nM)): 113 nM
Scratching behavior inhibition rate (NC/Nga mice; [2]): 70%
Irritant score Day 7 (NZW rabbits): 0.3
Irritant score Maximum (NZW rabbits): 1.3

SMILES: CCCCc1cc(CC2CCCCC2)nc2cc(C(=O)N3CCCCCC3)nn12 [Example 10]
scratching-behavior inhibition rate (ICR mice; solvent 100% ethanol): 41%
IC50 (PAR2; [1]): 178 nM
Scratching behavior inhibition rate (NC/Nga mice; [4]): 48%

SMILES: CCc1cc(CC2CCCC2)nc2cc(C(=O)N3CCCCC3(C)C)nn12 [Example 11]
IC50 (PAR2; [1]): 252 nM
Scratching behavior inhibition rate (NC/Nga mice; [2]): 80%

SMILES: CC(C)c1cc(CC2CCCC2)nc2cc(C(=O)N3CCCCC3(C)C)nn12 [Example 12]
scratching-behavior inhibition rate (ICR mice; solvent 100% ethanol): 51%
IC50 (PAR2; [1]): 76 nM
Scratching behavior inhibition rate (NC/Nga mice; [2]): 102%
Irritant score Day 7 (NZW rabbits): 0.0
Irritant score Maximum (NZW rabbits): 0.0

SMILES: CC(C)c1cc(CCC2CCCC2)nc2cc(C(=O)N3CCCCCC3)nn12 [Example 14]
IC50 (PAR2; [1]): 186 nM
Scratching behavior inhibition rate (NC/Nga mice; [2]): 95%
Irritant score Day 7 (NZW rabbits): 2.0
Irritant score Maximum (NZW rabbits): 2.0

SMILES: CC(C)c1cc(CC2CCCC2)nc2cc(C(=O)N3CCCCCC3)nn12 [Example 15, azepan-1-yl-[5-(cyclopentylmethyl)-7-propan-2-ylpyrazolo[1,5-a]pyrimidin-2-yl]methanone]
scratching-behavior inhibition rate (ICR mice; solvent 100% ethanol): 44%
IC50 (PAR2; [1]): 150 nM
Scratching behavior inhibition rate (NC/Nga mice; assessed concentration 3%, solvent 100% ethanol): 52%
Irritant score Day 7 (NZW rabbits): 0.0
Irritant score Maximum (NZW rabbits): 0.7

SMILES: CC(C)c1cc(CCC2CCCCC2)nc2cc(C(=O)N3CCCCCC3)nn12 [Example 17]
IC50 (PAR2; [1]): 232 nM
Scratching behavior inhibition rate (NC/Nga mice; [2]): 60%
Irritant score Day 7 (NZW rabbits): 0.7
Irritant score Maximum (NZW rabbits): 1.3

SMILES: CCc1cc(CC2CCCCC2)nc2cc(C(=O)N3CCCCCC3)nn12 [Example 19]
scratching-behavior inhibition rate (ICR mice; solvent 100% ethanol): 42%
IC50 (PAR2; [1]): 131 nM
Scratching behavior inhibition rate (NC/Nga mice; [4]): 70%

SMILES: CC1(C)CNCCCN1C(=O)c1cc2nc(C34CC5CC(CC(C5)C3)C4)cc(C(F)(F)F)n2n1 [Example 110]
scratching-behavior inhibition rate (ICR mice; solvent Acetone/methanol (1:1)): 25%
IC50 (PAR2; [1]): 228 nM

Second part, led by results:

IC50 (PAR2; [1]): 173 nM
SMILES: CCCc1cc(C23CC4CC(CC(C4)C2)C3)nc2cc(C(=O)N3CCCCCC3)nn12 [Example 1]
scratching-behavior inhibition rate (ICR mice; solvent 100% ethanol): 35%
Scratching behavior inhibition rate (NC/Nga mice; [2]): 76%

IC50 (PAR2; [1]): 23 nM
SMILES: O=C(c1cc2nc(CC3CCCCC3)cc(C(F)(F)F)n2n1)N1CCCCCC1 [Example 3, azepan-1-yl(5-(cyclohexylmethyl)-7-(trifluoromethyl)pyrazolo[1,5-a]pyrimidin-2-yl)methanone]
scratching-behavior inhibition rate (ICR mice; solvent 70% ethanol): 33%
Scratching behavior inhibition rate (NC/Nga mice; [3]): 71%
Irritant score Day 7 (NZW rabbits): 1.5
Irritant score Maximum (NZW rabbits): 1.6

IC50 (PAR2; [1]): 109 nM
SMILES: O=C(c1cc2nc(CC3CCCC3)cc(C(F)(F)F)n2n1)N1CCCCCC1 [Example 4, azepan-1-yl(5-(cyclopentylmethyl)-7-(trifluoromethyl)pyrazolo[1,5-a]pyrimidin-2-yl)methanone]
Scratching behavior inhibition rate (NC/Nga mice; [3]): 56%

IC50 (PAR2; [1]): 149 nM
SMILES: O=C(c1cc2nc(CCC3CCCC3)cc(C(F)(F)F)n2n1)N1CCCCCC1 [Example 6, azepan-1-yl(5-(2-cyclopentylethyl)-7-(trifluoromethyl)pyrazolo[1,5-a]pyrimidin-2-yl)methanone]
Scratching behavior inhibition rate (NC/Nga mice; [2]): 60%

IC50 (PAR2; [1]): 95 nM
SMILES: O=C(c1cc2nc(CC3CCCCC3)cc(C3CCCCC3)n2n1)N1CCCCCC1 [Example 8, azepan-1-yl(7-cyclohexyl-5-(cyclohexylmethyl)pyrazolo[1,5-a]pyrimidin-2-yl)methanone]
scratching-behavior inhibition rate (ICR mice; solvent 100% ethanol): 30%
Scratching behavior inhibition rate (NC/Nga mice; [2]): 50%

IC50 (PAR2; [1]): 569 nM
SMILES: O=C(c1cc2nc(C3CCCC3)cc(C(F)(F)F)n2n1)N1CCCCCC1 [Example 55]
scratching-behavior inhibition rate (ICR mice; solvent Acetone/methanol (1:1)): 47%
Scratching behavior inhibition rate (NC/Nga mice; assessed concentration 6%, solvent Acetone/methanol (1:1)): 54%

IC50 (PAR2; [1]): 169 nM
SMILES: CC(C)c1cc(CC2CCCC2)nc2cc(C(=O)N3CCCC(O)C3(C)C)nn12 (centres unmarked) [Example 117]
scratching-behavior inhibition rate (ICR mice; solvent 100% ethanol): 34%
